≈ marks a conversion by molar mass, not a printed value.
Tests used:
[1] = Intrinsic clearance in mouse liver microsomes assessed per mg protein in presence of NADPH by UPLC analysis; type: ADME, Microsome; settings: read-out: CLH
[2] = Thermodynamic solubility in phosphate buffer at pH 7.4 at 2 mg incubated under shaking condition for 6 hrs followed by rechecking and readjusting pH to 7.4 and further incubated for 18 hrs by HPLC/UV detection method; type: physicochemical; settings: read-out: Therm_solubility
[3] = target: T1, Poly [ADP-ribose] polymerase tankyrase-1 (Homo sapiens, UniProt O95271); parameters: species or system Sf9
T1 sequence (O95271 whole entry): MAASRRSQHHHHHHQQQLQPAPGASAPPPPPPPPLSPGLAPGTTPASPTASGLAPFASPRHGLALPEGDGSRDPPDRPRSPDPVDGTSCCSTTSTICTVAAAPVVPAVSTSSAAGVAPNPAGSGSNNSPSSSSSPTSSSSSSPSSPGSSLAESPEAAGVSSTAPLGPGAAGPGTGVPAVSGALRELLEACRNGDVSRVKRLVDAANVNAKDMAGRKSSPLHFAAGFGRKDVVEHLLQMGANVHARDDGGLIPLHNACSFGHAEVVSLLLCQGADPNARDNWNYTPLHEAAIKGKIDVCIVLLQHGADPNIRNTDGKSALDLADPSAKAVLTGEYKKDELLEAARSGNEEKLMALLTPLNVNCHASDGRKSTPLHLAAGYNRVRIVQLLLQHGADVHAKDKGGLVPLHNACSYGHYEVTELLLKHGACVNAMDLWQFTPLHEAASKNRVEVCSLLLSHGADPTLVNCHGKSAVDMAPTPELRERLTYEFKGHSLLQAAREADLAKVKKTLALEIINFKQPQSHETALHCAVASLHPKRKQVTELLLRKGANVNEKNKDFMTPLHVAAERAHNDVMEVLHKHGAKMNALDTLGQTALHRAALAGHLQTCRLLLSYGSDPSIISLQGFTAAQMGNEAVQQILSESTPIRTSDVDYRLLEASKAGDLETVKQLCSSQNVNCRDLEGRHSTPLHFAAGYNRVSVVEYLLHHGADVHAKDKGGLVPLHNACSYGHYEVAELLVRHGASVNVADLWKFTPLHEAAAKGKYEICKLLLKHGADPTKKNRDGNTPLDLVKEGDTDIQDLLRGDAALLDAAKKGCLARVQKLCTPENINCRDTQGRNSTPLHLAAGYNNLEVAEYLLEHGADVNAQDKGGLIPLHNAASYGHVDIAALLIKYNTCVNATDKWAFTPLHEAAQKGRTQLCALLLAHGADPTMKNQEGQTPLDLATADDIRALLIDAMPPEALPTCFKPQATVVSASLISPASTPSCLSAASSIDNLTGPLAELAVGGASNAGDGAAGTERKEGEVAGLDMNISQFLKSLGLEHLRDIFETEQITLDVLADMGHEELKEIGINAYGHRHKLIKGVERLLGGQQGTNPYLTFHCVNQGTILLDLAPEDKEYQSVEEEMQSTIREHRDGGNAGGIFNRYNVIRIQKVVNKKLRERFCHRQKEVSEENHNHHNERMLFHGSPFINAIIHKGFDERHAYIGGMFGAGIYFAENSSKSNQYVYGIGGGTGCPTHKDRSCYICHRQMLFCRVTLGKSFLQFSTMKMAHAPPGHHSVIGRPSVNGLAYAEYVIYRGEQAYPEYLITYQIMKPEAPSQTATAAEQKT

[4] = Intrinsic clearance in human liver microsomes assessed per mg protein in presence of NADPH by UPLC analysis; type: ADME, Microsome; settings: read-out: CLH
[5] = target: T2, Poly [ADP-ribose] polymerase 1 (Homo sapiens, UniProt P09874); assay: (§1) Inhibition of recombinant human full-length Myc/His-tagged Parp-1 expressed in baculovirus infected Sf21 insect cells assessed as reduction in auto-PARsylation using activated DNA as substrate incubated for 150 mins in presence of NAD and bio-NAD as co-substrate by TR-FRET assay
T2 sequence (P09874 whole entry): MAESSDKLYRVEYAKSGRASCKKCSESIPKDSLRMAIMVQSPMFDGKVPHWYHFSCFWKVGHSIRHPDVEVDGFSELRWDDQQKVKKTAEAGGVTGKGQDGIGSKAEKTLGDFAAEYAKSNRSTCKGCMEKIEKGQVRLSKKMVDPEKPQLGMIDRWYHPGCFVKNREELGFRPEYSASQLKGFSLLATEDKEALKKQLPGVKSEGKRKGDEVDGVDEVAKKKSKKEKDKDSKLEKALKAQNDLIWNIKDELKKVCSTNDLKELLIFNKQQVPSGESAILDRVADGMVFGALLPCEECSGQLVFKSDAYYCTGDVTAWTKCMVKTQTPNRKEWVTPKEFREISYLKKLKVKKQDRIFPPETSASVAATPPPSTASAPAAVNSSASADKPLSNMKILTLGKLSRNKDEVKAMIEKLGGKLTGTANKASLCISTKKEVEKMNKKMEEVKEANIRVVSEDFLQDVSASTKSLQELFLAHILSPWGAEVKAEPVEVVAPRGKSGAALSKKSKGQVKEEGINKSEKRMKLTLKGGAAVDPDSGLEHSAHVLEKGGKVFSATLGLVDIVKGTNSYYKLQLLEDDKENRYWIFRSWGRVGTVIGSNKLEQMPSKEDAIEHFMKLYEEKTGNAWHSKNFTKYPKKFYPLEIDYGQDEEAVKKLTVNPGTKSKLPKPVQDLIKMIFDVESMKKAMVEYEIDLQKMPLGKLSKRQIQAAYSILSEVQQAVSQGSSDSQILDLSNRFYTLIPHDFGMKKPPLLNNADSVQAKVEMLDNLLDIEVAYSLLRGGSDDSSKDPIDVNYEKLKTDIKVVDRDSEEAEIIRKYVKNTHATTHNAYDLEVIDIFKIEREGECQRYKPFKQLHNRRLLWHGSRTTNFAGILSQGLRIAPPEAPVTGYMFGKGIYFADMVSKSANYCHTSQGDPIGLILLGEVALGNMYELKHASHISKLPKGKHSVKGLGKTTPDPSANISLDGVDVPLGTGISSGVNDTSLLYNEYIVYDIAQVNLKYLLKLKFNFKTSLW

Tankyrase 1/2 = target: T3, Tankyrase 1/2 (Homo sapiens, UniProt Q9H2K2+O95271)
T3 sequence (Q9H2K2 whole entry): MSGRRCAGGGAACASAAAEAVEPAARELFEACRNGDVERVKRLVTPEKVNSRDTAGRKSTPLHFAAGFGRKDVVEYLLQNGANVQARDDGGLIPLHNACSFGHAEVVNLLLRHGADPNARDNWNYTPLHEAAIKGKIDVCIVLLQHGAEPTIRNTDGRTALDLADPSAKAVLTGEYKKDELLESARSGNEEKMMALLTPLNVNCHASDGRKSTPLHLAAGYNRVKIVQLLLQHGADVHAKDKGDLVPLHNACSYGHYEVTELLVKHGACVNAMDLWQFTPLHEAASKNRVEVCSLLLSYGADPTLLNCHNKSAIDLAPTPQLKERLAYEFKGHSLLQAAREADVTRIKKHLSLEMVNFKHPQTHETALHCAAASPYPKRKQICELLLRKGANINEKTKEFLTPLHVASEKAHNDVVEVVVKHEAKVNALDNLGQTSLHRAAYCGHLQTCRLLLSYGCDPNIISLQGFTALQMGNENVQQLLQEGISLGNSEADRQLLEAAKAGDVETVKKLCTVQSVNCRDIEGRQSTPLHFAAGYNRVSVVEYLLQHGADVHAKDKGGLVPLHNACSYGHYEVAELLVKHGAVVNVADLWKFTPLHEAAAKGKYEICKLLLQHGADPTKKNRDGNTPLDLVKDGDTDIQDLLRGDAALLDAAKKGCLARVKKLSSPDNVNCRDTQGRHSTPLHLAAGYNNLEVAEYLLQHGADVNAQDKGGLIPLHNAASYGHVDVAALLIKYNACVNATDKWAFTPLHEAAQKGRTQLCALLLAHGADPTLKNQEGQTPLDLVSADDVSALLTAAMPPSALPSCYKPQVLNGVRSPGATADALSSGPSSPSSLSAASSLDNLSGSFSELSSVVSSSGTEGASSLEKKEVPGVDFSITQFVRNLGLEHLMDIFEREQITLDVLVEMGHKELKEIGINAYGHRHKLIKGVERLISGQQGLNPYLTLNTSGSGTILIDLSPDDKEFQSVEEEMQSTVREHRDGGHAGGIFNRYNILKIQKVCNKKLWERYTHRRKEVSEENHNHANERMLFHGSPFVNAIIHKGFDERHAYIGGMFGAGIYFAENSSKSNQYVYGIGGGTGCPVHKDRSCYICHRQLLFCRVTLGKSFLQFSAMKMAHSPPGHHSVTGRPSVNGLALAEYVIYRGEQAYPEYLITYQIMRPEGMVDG
T3 sequence (O95271 whole entry): T1 sequence (O95271 whole entry)
Description: Inhibition of tankyrase 1/2 in human DLD1 cells assessed as increase in axin2 accumulation incubated for 24 hrs by luminex based bead assay

[6] = target: T4, Poly [ADP-ribose] polymerase tankyrase-2 (Homo sapiens, UniProt Q9H2K2); assay: biochemical
T4 sequence (Q9H2K2 whole entry): T3 sequence (Q9H2K2 whole entry)
Description: Inhibition of GST tagged-TEV cleavage site-fused human recombinant TNKS2 (873 to 1166 residues) expressed in baculovirus infected sf9 cells assessed as reduction in auto-PARsylation incubated for 60 mins in presence of bio-NAD as co-substrate by ELISA

[7] = target: T4, Poly [ADP-ribose] polymerase tankyrase-2; assay: biochemical; remark: listed apart in the source
Description: Inhibition of GST tagged-TEV cleavage site-fused human recombinant TNKS2 (873 to 1166 residues) expressed in baculovirus infected Sf9 cells assessed as reduction in auto-PARsylation incubated for 90 mins in presence of bio-NAD as co-substrate by TR-FRET assay

[8] = target: T1, Poly [ADP-ribose] polymerase tankyrase-1; assay: biochemical
Description: Inhibition of GST tagged-TEV cleavage site-fused human recombinant TNKS1 (1023 to 1327 residues) expressed in baculovirus infected Sf9 cells assessed as reduction in auto-PARsylation incubated for 90 mins in presence of bio-NAD as co-substrate by TR-FRET assay

[9] = target: T2, Poly [ADP-ribose] polymerase 1; assay: as §1, with “auto-PARsylation at 10 uM” for “auto-PARsylation”, “assay relative to control” for “assay”

microsomal CLint [1] [µL/min/mg] | solubility thermodynamic at 24 h [2] [µg/mL] | IC50 [3] [nM] | microsomal CLint [4] [µL/min/mg] | IC50 [5] [nM] | EC50 (Tankyrase 1/2) [nM] | IC50 [6] [nM] | IC50 [7] [nM] | IC50 [8] [nM] | inhibition [9] [%] | SMILES
81 | 4 (≈ 13.6 µM) | 1.2 | < 10 | 79 |  |  |  |  |  | Cc1cccc2c(=O)[nH]c(-c3ccc(C(C)(C)O)cc3)nc12
46 | 38 (≈ 136 µM) | 15 | 15 | 910 | 1300 | 13 |  |  |  | CC(C)(O)c1ccc(-c2nc3ccccc3c(=O)[nH]2)cc1
26 | 15 (≈ 50.3 µM) | 14 | < 10 | 1100 |  |  |  |  |  | CC(C)(O)c1ccc(-c2nc3c(F)cccc3c(=O)[nH]2)cc1
346 | 1 (≈ 3.76 µM) |  | 83 | 1700 | > 30000 |  | 620 | 430 |  | O=c1[nH]c(-c2ccc3c(c2)OCO3)nc2ccccc12
< 10 | < 1 | 7.9 | 19 | > 10000 | 1500 | 8.7 |  |  | 35 | CC(C)(C)c1ccc(-c2nc3ccccc3c(=O)[nH]2)cc1
49 |  | 11 | 23 | 410 |  |  |  |  |  | CC(C)(O)c1ccc(-c2nc3c(Cl)cccc3c(=O)[nH]2)cc1
> 1000 | < 1 | 3.3 | 70 | 3900 |  |  |  |  |  | CC(C)(C)c1ccc(-c2nc3ccc(F)cc3c(=O)[nH]2)cc1
630 | 4 (≈ 15.9 µM) |  | 217 |  |  |  |  |  |  | COc1ccc(-c2nc3ccccc3c(=O)[nH]2)cc1
25 | 29 (≈ 97.2 µM) | 12.5 | < 10 | 349 |  |  |  |  |  | CC(C)(O)c1ccc(-c2nc3ccc(F)cc3c(=O)[nH]2)cc1
 |  | 35 |  | 4300 |  |  |  |  |  | CC(C)(O)c1ccc(-c2nc3cccc(Cl)c3c(=O)[nH]2)cc1
45 | 153 (≈ 493 µM) | 35 | 12 | 630 |  |  |  |  |  | COc1cccc2c(=O)[nH]c(-c3ccc(C(C)(C)O)cc3)nc12
11 | 20 (≈ 67 µM) | 17 | < 10 | 830 |  |  |  |  |  | CC(C)(O)c1ccc(-c2nc3cccc(F)c3c(=O)[nH]2)cc1
 |  | 23 |  | 1400 |  |  |  |  |  | CC(C)(O)c1ccc(-c2nc3ccc(Cl)cc3c(=O)[nH]2)cc1

More lines, now with the values behind:

SMILES | microsomal CLint [1] [µL/min/mg] | solubility thermodynamic at 24 h [2] [µg/mL] | IC50 [3] [nM] | microsomal CLint [4] [µL/min/mg] | IC50 [5] [nM] | EC50 (Tankyrase 1/2) [nM] | IC50 [6] [nM] | IC50 [7] [nM] | IC50 [8] [nM] | inhibition [9] [%]
CN1CCN(c2ccc(-c3nc4ccc(F)cc4c(=O)[nH]3)cc2)CC1 | 44 | 6 (≈ 17.7 µM) | 12 | < 10 | 370 |  |  |  |  | 
Cc1cc(F)cc2c(=O)[nH]c(-c3ccc(C(C)(C)OCCO)cc3)nc12 | 180 |  | 1.6 | 37 | 790 |  |  |  |  | 
Cc1cc(F)cc2c(=O)[nH]c(-c3ccc(C4CCN(C)CC4)cc3)nc12 | 422 | 5 (≈ 14.2 µM) | 2.2 | < 10 | 620 | 50 | 2.2 |  |  | 
COCCOC(C)(C)c1ccc(-c2nc3ccc(F)cc3c(=O)[nH]2)cc1 | 126 | 6 (≈ 16.8 µM) | 24 | 41 | 5700 |  |  |  |  | 
CC(C)(O)c1ccc(-c2nc3ccc(F)cc3c(=O)[nH]2)nc1 | < 10 |  | 1000 | 15 | 2500 |  |  |  |  | 
Cl.O=c1[nH]c(-c2ccc(C3CCNCC3)cc2)nc2c(F)cc(F)cc12 | < 10 | 57 | 15 | < 10 |  |  |  |  |  | 
Cc1cc(F)cc2c(=O)[nH]c(-c3ccc(N4CCN(C)CC4)cc3)nc12 | 138 | 4 (≈ 11.4 µM) | 1.5 | 14 | 120 |  |  |  |  | 
CC(C)(O)c1ccc(-c2nc3ccc(F)c(F)c3c(=O)[nH]2)cc1 | 23 | 25 (≈ 79 µM) | 7 | < 10 | 512 |  |  |  |  | 
CC(C)(OCCO)c1ccc(-c2nc3ccc(F)cc3c(=O)[nH]2)cc1 | 32 | 23 (≈ 67.2 µM) | 10 | < 10 | 2300 |  |  |  |  | 
CC(C)(O)c1ccc(-c2nc3c(F)ccc(F)c3c(=O)[nH]2)cc1 | < 10 | 5 (≈ 15.8 µM) | 26 | < 10 | 1300 |  |  |  |  | 
CN1CCC(c2ccc(-c3nc4c(F)cc(F)cc4c(=O)[nH]3)cc2)CC1.O=C(O)C(F)(F)F | 39 | 65 | 31 | < 10 | 3700 | 3900 | 31 |  |  | 
Cc1cc(F)cc2c(=O)[nH]c(-c3ccc(C(C)(C)O)cc3)nc12 | 180 | 1 (≈ 3.2 µM) | 0.8 | < 10 | 60 |  |  |  |  | 

Source: ChEMBL document CHEMBL4321794, “Discovery and Optimization of 2-Arylquinazolin-4-ones into a Potent and Selective Tankyrase Inhibitor Modulating Wnt Pathway Activity” (J Med Chem, 2019)
